One compound from BindingDB's records for doi:10.1021/acschembio.6b00677 (Pfizer, 2016) can be followed below.

Common to all, as to experiment: TR-FRET Competition Assay
What all share (conditions): pH 7.5
A general note: In TR-FRET formats the signal depends on donor and acceptor labels being close together.

The target in assay [1] is T1, Tyrosine-protein kinase TXK (Homo sapiens, UniProt P42681).
T1 sequence (P42681 whole entry): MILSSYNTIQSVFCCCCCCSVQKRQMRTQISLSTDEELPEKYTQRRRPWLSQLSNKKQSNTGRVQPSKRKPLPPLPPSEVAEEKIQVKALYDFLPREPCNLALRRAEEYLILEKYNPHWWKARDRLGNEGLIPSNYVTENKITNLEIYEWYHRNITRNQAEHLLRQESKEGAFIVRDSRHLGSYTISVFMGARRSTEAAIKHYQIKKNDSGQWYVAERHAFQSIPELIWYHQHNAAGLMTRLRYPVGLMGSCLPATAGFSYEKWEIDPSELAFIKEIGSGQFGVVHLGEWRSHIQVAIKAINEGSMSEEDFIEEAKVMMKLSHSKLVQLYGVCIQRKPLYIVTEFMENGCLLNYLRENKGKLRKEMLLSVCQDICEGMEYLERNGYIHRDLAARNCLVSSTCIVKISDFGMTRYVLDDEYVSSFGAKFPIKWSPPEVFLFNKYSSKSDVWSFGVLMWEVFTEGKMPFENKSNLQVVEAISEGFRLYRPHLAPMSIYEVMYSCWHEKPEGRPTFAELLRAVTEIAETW
The protocol:
(§1) Assay buffer was 20 mM HEPES, pH 7.5, 10 mM MgCl2, 0.01% BSA, 1 mM DTT, 0.0005% Tween 20, and 2% DMSO. […] The assays were read using an EnVi

Assay [2] concerns the target T2, Tyrosine-protein kinase Tec (Homo sapiens, UniProt P42680).
T2 sequence (P42680 whole entry): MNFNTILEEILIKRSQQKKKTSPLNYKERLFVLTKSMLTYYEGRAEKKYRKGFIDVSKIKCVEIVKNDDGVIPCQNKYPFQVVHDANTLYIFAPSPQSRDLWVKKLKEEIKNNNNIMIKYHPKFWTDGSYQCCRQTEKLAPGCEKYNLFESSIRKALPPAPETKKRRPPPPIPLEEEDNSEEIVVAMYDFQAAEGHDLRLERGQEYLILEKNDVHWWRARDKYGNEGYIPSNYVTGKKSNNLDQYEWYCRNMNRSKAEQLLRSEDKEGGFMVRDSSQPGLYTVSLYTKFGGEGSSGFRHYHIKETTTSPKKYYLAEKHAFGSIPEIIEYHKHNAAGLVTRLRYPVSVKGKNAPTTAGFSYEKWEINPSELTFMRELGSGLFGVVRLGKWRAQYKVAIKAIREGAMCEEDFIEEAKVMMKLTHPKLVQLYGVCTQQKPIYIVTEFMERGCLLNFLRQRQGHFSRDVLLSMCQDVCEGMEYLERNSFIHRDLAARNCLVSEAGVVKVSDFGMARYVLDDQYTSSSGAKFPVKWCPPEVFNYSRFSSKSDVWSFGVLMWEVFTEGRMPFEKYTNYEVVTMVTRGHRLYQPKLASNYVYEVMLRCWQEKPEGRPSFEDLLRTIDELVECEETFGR
The protocol:
as §1

The target in assay [3] is Tyrosine-protein kinase Blk (Homo sapiens, UniProt P51451). The protocol:
as §1

Sequence of Tyrosine-protein kinase Blk (P51451 whole entry): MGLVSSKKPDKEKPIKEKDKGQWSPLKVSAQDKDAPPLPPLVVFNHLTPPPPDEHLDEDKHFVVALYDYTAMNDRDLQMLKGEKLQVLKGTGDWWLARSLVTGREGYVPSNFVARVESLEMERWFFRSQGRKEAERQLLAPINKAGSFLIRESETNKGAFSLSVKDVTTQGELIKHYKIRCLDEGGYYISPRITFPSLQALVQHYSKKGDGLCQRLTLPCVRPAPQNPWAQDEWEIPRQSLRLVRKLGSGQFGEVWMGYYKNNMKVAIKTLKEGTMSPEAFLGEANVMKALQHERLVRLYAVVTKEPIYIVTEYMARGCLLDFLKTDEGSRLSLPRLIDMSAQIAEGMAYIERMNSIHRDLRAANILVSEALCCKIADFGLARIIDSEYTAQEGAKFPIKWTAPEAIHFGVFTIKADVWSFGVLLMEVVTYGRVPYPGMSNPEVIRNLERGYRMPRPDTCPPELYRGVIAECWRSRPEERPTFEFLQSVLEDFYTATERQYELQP

One may read the Ki as the equilibrium dissociation constant of an inhibitor or competing ligand from its target. On to `C=CC(=O)N1C[C@H](Nc2ncnc3[nH]ccc23)CC[C@@H]1C` [PF-06651600], for which the Ki in assay [1] was determined as 131 pM; in assay [2], 679 pM; in assay [3] it was 32400 pM.
